One assay relates to Wnt target genes. Particulars: reported in the literature; cited from earlier work.
Assay [1] concerns the target T1, β-catenin/BCL9 interaction (Homo sapiens, UniProt P35222).
T1 sequence (P35222 1-781): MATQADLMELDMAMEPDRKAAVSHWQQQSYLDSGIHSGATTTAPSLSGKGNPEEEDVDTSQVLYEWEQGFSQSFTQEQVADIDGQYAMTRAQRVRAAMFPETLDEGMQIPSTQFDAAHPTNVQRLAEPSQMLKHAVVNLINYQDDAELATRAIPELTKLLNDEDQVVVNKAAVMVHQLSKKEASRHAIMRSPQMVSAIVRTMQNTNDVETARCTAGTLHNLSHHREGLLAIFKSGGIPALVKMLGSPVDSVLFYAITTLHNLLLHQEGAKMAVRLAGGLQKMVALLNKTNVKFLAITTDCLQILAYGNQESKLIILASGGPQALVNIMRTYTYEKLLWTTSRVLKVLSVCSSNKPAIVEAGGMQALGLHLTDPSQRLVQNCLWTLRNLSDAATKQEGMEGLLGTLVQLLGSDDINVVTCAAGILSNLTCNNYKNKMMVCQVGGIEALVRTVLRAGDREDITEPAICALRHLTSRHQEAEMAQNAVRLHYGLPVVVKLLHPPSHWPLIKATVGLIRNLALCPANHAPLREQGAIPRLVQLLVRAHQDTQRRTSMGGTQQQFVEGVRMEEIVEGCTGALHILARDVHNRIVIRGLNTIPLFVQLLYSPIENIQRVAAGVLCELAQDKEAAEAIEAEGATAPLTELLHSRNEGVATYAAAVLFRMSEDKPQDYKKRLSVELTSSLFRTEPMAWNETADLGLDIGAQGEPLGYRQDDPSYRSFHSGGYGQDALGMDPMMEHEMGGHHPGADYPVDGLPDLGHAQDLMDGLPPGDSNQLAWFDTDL
Particulars: reported in the literature; cited from earlier work.

For the next assay, the target named is T2, β-catenin/BCL9 PPI (Homo sapiens, UniProt P35222).
T2 construct: Wild-type full-length β-catenin were cloned into a pET-28b vector; made in house; host or cells: Escherichia coli BL21 DE3 (β-catenin); BCL9 peptide chemically synthesized
T2 sequence (P35222 1-781): T1 sequence (P35222 1-781)
Briefly: AlphaScreen competitive inhibition assay of the β-catenin/BCL9 PPI. The class given is binding. Particulars: mean ± SD, triplicate, Ki derived from IC50 (Nikolovska-Coleska equation). The method, then: Protein expression and purification. Wild-type full-length β-catenin were cloned into a pET-28b vector carrying a C-terminal 6×histidine (Novagen), and transformed into Escherichia coli BL21 DE3 (Novagen). Cells were cultured in LB medium with 30 μg/mL kanamycin until the OD600 was approximately 0.8, and then protein expression was induced with 400 μM of IPTG at 20° C. overnight. Cells were lysed by sonication. The proteins were purified by Ni-NTA affinity chromatography (30210, Qiagen) and dialyzed against a buffer containing 20 mM of Tris (pH 8.5), 100 mM NaCl, 10% glycerol, and 3 mM DTT. The purity of β-eaten in was greater than 95% as determined by SDS-PAGE gel analysis. Native non-denaturing gel electrophoresis was performed to confirm the homogeneity of the purified proteins. Thermal-shift assay was performed on an iCycler iQ Real Time Detection System (Bio-Rad) to monitor protein stability and detect protein aggregation. Protein unfolding was evaluated through measuring the S15 fluorescence changes of fluorescent dye Sypro Orange when interacting with wild-type or mutant β-catenin proteins. A temperature increment of […] was applied. CD spectra were measured on a J-815 spectropolarimeter (Jasco). All spectra were recorded at room temperature, and the baseline control containing all of the substances except protein. Sample were prepared at a concentration around 1-5 μM in a buffer of 10 mM potassium phosphate and 100 mM potassium fluoride at pH 7.0 to ensure that the transmission of light through the sample was not restricted. All proteins were stable and no aggregation was observed under storage or assay conditions. Proteins were aliquoted and stored at −80° C.
BCL9 peptide synthesis and purification. Human BCL9 (residues 350-375), and […] biotinylated human BCL9 (residues 350-375) were synthesized. All synthesized peptides were purified by HPLC with purity >95%. The structures were validated by LC/MS. The sequences are as follows (Ahx, 6-aminohexanoic acid).
AlphaScreen competitive inhibition assays. For the competitive inhibition assays of the β-catenin/BCL9 PPI, the negative control (equivalent to 0% inhibition) refers to 5.0 nM of biotinylated BCL9, 40 nM of His6-tagged β-catenin, and 10 μg/mL of donor and acceptor beads in a final volume of 25 μL assay buffer, but no tested inhibitor present. The positive control (equivalent to 100% inhibition) refers to 5.0 nM of biotinylated BCL9 and […] of donor and acceptor beads in a final volume of 25 μL assay buffer.
For the β-catenin/BCL9 assay, 5 nM of biotinylated BCL9 and 40 nM of His6-tagged β-catenin were incubated in assay buffer at 4° C. for 30 min. Different concentrations of the tested inhibitor were added and incubated in 20 μL assay buffer at 4° C. for another 1 h. All of the above assay plates were covered and gently mixed on an orbital shaker. The donor and acceptor beads were then added to the plates to a final concentration of 10 μg/mL in 25 μL assay buffer. The mixture was incubated for 1 h at 4° C. before detection. The IC50 value was determined by nonlinear least-square analysis of GraphPad Prism 5.0. The Ki values were derived from the IC50 values using a method reported by Nikolovska-Coleska et al (Nikolovska-Coleska, Z.; Wang, R.; Fang, X.; Pan, H.; Tomita, Y.; Li, P.; Roller, P. P.; Krajewski, K.; Saito, N. G.; Stuckey, J. A.; Wang, S. Development and optimization of a binding assay for the XIAP BIR3 domain using fluorescence polarization. Anal. Biochem. 2004, 332, 261-273.). The assays were conducted under the conditions required by Nikolovska-Coleska et al.'s equation for determining the Ki values. All of the experiments were performed in triplicate. The results were expressed as mean±standard deviation.

[2] abbreviates: experiment 1, read-out: Ki (μM ± SD) experiment 1.
[3] abbreviates: experiment 2, read-out: Ki (μM ± SD) experiment 2.

Where two headings read alike, the source gives them in different places. A value given as a limit tells only on which side of the number the result lay.

For the molecule `CC(C)c1cc2c(c(O)c1O)[C@@]1(C(=O)O)CCCC(C)(C)[C@@H]1CC2` [camosic acid, Carnosic acid], the “suppression of Wnt target gene / β-catenin-dependent transcription” value in the assay on Wnt target genes is recorded as “inhibit β-catenin-dependent transcription”. For the same molecule, the “disruption of the β-catenin/BCL9 interaction” value in assay [1] was “can disrupt the β-catenin/BCL9 interaction”.

What is called Ki is a measure of affinity in units of concentration, obtained from inhibition or displacement. Turning to `CN(C(=O)C(C)(C)CN)c1cc(F)cc(C(=O)N2CCN(C(=O)c3ccc(O[C@H]4CCNC4)c(C4CCCCC4)c3)CC2)c1` [Compound 9, (S)-3-amino-N-(3-(4-(3-cyclohexyl-4-(pyrrolidin-3-yloxy)benzoyl)piperazine-1-carbonyl)-5-fluorophenyl)-N,2,2-trimethylpropanamide ditrifluoroacetate], the Ki on β-catenin/BCL9 PPI (setting [2]) and on β-catenin/BCL9 PPI (setting [3]) was more than 90 µM in each case.

Turning to `CC(C)(N)C(=O)Nc1cc(F)cc(C(=O)N2CCN(C(=O)c3ccc(O[C@H]4CCNC4)c(C4CCCCC4)c3)CC2)c1` [Compound 3, (S)-2-Amino-N-(3-(4-(3-cyclohexyl-4-(pyrrolidin-3-yloxy)benzoyl)piperazine-1-carbonyl)-5-fluorophenyl)-2-methylpropanamide ditrifluoroacetate], the Ki was found to be 310 ± 32 µM at β-catenin/BCL9 PPI (setting [2]) and 550 ± 46 µM at β-catenin/BCL9 PPI (setting [3]).
